Experimental data published in PMC6792352, “Limited Chemical Structural Diversity Found to Modulate Thyroid Hormone Receptor in the Tox21 Chemical Library” (Environmental Health Perspectives, 2019).
Counter-ions that a name gives are not always drawn.

Experiment: in vitro
Details: rat, gh3-tre-luc cells

Structure (SMILES)	CC50 at 24 h (AC50 (uM) modified / 1000) [µM]	other results
CC(=O)c1ccccn1 [2-Acetylpyridine]	> 90	–
C=C(C)C(=O)OCCOC1CC2CC1C1C=CCC21 (centres unmarked) [(Dicyclopentadienyloxy)ethyl methacrylate]	> 100	–
N#Cc1nc(Cl)c(Cl)c(Cl)c1Cl [3,4,5,6-Tetrachloropyridine-2-carbonitrile]	3	–
O=C(O)c1ccccc1C(=O)O [Phthalic acid]	> 90	–
O=C(N/N=C/c1ccccc1O)c1ccncc1 [Salinazid]	> 50	–
CCCCCCCCCCCCCC[N+](C)(C)C [Myristyltrimethylammonium chlorideN,N,N-Trimethyltetradecan-1-aminium chloride]	9.07	–
CCCCCCCCCCCCCCCCCCCCCCO [1-Docosanol]	> 50	–
CC(=O)O[C@]1(C(C)=O)CC[C@H]2[C@@H]3C=C(Cl)C4=CC(=O)CC[C@]4(C)[C@H]3CC[C@@]21C [Chlormadinone acetate]	90.1	–
CC(C)OC(C)C [Isopropyl ether]	> 100	–
CCCBr [1-Bromopropane]	–	CC50 at 24 h (AC50 (uM) modified / 1000, Tox21_110001=Tox21_200619, viability, 1 nM T3 present, 24 h): > 90 µM
COc1ccccc1N1CCN(CC(O)COc2cccc3ccccc23)CC1 (centres unmarked) [Naftopidil]	23.4	–
COC(=O)c1ccccc1O [Methyl salicylate]	> 90	–
C[C@H](O)[C@H]1CC[C@H]2[C@@H]3CC[C@@H]4C[C@H](O)CC[C@]4(C)[C@H]3CC[C@]12C [Pregnandiol]	> 50	–
CCCCCC[C@@H](O)C/C=C\CCCCCCCC(=O)OCC(O)CO (some centres unmarked) [Glyceryl monoricinoleate]	> 90	–
O=CN(CCO)CCO [N,N-Bis(2-hydroxyethyl)formamide]	> 90	–
Cc1cccc(Cc2c[nH]cn2)c1C [Detomidine hydrochloride]	> 50	–
CC(C)CC(N(C)C)C1(c2ccc(Cl)cc2)CCC1 (centres unmarked) [Sibutramine hydrochloride]	–	CC50 at 24 h (AC50 (uM) modified / 1000, Tox21_110001=Tox21_111448, viability, 1 nM T3 present, 24 h): > 50 µM
C#C[C@]1(OC(C)=O)CC[C@H]2[C@@H]3CCC4=CC(=O)CC[C@@H]4[C@H]3CC[C@@]21C [Norethindrone acetate]	> 50	–
CCN(CC)c1nc(C)cc(OP(=S)(OC)OC)n1 [Pirimiphos-methyl]	–	CC50 at 24 h (AC50 (uM) modified / 1000, Tox21_110001=Tox21_300718, viability, 1 nM T3 present, 24 h): > 90 µM
CC/C=C\CCO [(Z)-3-Hexen-1-ol]	> 90	–
C=C(Cl)CCl [2,3-Dichloro-1-propene]	–	CC50 at 24 h (AC50 (uM) modified / 1000, Tox21_110001=Tox21_200640, viability, 1 nM T3 present, 24 h): > 90 µM
c1ccc(-n2cnnn2)cc1 [1-Phenyl-1H-tetrazole]	> 50	–

Structure (SMILES)	CC50 at 24 h (AC50 (uM) modified / 1000) [µM]	other results
CCCCCCOCCOCCO [2-[2-(Hexyloxy)ethoxy]ethanol]	> 90	–
C/C=C/c1ccc(O)c(OC)c1 [Isoeugenol]	> 90	–
C=CCOC(=O)c1ccc(C(=O)OCC=C)c(C(=O)OCC=C)c1 [Triallyl trimellitate]	> 90	–
CN(Cc1ccccc1)Cc1ccccc1 [Dibemethine]	> 50	–
O=C1OC(=O)c2c(Cl)c(Cl)c(Cl)c(Cl)c21 [Tetrachlorophthalic anhydride]	> 90	–
CCCCCCOC(=O)c1ccccc1O [Hexyl salicylate]	> 90	–
COc1cc(OC)nc(Oc2cccc(Oc3nc(OC)cc(OC)n3)c2C(=O)O)n1 [Bispyribac-sodium]	> 90	–
CN1C(=O)CCS(=O)(=O)C1c1ccc(Cl)cc1 (centres unmarked) [Chlormezanone]	> 90	–
CC(C)OC(=O)Nc1ccc2[nH]c(-c3cscn3)nc2c1 [Cambendazole]	4.4	–
CC(C)OB(OC(C)C)OC(C)C [Triisopropyl orthoborate]	> 90	–
COCC(C)N (centres unmarked) [1-Methoxy-2-propylamine]	> 90	–
O=[N+]([O-])c1cc(C(F)(F)F)cc([N+](=O)[O-])c1Cl [2-Chloro-1,3-dinitro-5-(trifluoromethyl)benzene]	> 90	–
CCCCC(CC)COC(=O)c1ccccc1O (centres unmarked) [2-Ethylhexyl salicylate]	> 50	–
CC(C)(N)Cc1ccc(Cl)cc1 [Chlorphentermine hydrochloride]	–	CC50 at 24 h (AC50 (uM) modified / 1000, Tox21_110001=Tox21_111804, viability, 1 nM T3 present, 24 h): > 50 µM
CCN(CC)CCNC(=O)c1ccc(N)cc1 [Procainamide hydrochloride]	> 90	–
COc1ccc(S(=O)(=O)N2C(=O)[C@@](c3ccccc3OC)(N3C[C@H](O)C[C@H]3C(=O)N(C)C)c3cc(Cl)ccc32)c(OC)c1 [Nelivaptan]	34.9	–
Cc1cc(Br)ccc1NC(=O)CCl [2-Chloro-N-(2-methyl-4-bromophenyl)acetamide]	22.1	–
O=C1CCC(c2ccc(-n3ccnc3)cc2)=NN1 [Imazodan]	> 50	–
COC(=O)Nc1nc2ccc([S+]([O-])c3ccccc3)cc2[nH]1 (centres unmarked) [Oxfendazole]	> 50	–
NC(N)=O [Urea]	> 100	–
Cc1ccc2c(c1)C1CN(C)CCC1N2 (centres unmarked) [Dicarbine]	> 50	–
C=CC(=O)OCCC#N [2-Cyanoethyl prop-2-enoate]	> 90	–

Structure (SMILES)	CC50 at 24 h (AC50 (uM) modified / 1000) [µM]	other results
Nc1ccc(S(=O)(=O)Nc2cnc3ccccc3n2)cc1 [Sulfaquinoxaline]	> 90	–
Clc1ccc(C(Cn2ccnc2)OCc2ccsc2Cl)c(Cl)c1 (centres unmarked) [Tioconazole]	14.7	–
O=C(O)c1cccc(C(=O)O)n1 [2,6-Pyridinedicarboxylic acid]	> 90	–
Cc1cnc(NC(=O)C2=C(O)c3ccccc3S(=O)(=O)N2C)s1 [Meloxicam]	> 90	–
CC(=O)O[C@]1(C(C)=O)CC[C@H]2[C@@H]3C=C(Cl)C4=CC(=O)[C@@H]5C[C@@H]5[C@]4(C)[C@H]3CC[C@@]21C [Cyproterone acetate]	66.8	–
Cc1cc(=O)oc2cc(O)cc(O)c12 [5,7-Dihydroxy-4-methylcoumarin]	> 90	–
CCCO [1-Propanol]	> 90	–
CCC1C(C)=NN=C(c2ccc(OC)c(OC)c2)c2cc(OC)c(OC)cc21 (centres unmarked) [Tofisopam]	> 50	–
O=C(O)CNc1ccccc1 [Potassium anilinoacetate]	> 90	–
Cc1c(-c2ccccc2)oc2c(C(=O)OCCN3CCCCC3)cccc2c1=O [Flavoxate hydrochloride]	> 20	–
CC1(C)CC(O)CC(C)(C)N1 [2,2,6,6-Tetramethyl-4-piperidinol]	> 90	–
On1nnc2ccccc21 [1-Hydroxybenzotriazole]	> 90	–
Cc1ncc(C[n+]2csc(CCOP(=O)(O)O)c2C)c(N)n1 [Monophosphothiamine]	> 50	–
NCC1CCCC(CN)C1 (centres unmarked) [1,3-Cyclohexanedimethanamine]	> 90	–
CC1CCC(C(C)(C)S)C(=O)C1 (centres unmarked) [p-Mentha-8-thiol-3-one]	> 90	–
O=C(Nc1ncc([N+](=O)[O-])s1)c1cccs1 [Tenonitrozole]	30.4	–
CCOCCOCCOCCO [2-[2-(2-Ethoxyethoxy)ethoxy]ethanol]	> 90	–
Cc1ccccc1S(=O)(=O)O [Sodium 2-methylbenzenesulfonate]	> 100	–
CN1CC[C@]23c4c5ccc(O)c4O[C@H]2[C@@H](O)CC[C@H]3[C@H]1C5 [Dihydromorphine]	–	CC50 at 24 h (AC50 (uM) modified / 1000, Tox21_110001=Tox21_112886, viability, 1 nM T3 present, 24 h): > 90 µM
CCCCCNCCCCC [Dipentylamine]	> 90	–
C[C@H]1[C@H]2CC[C@H]3[C@@H]4CC=C5C[C@@H](N(C)C)CC[C@]5(C)[C@H]4CC[C@]23CN1C [Conessine]	> 50	–
C[C@@H]1O[C@@H](OC[C@H]2O[C@@H](Oc3c(-c4ccc(OCCO)c(OCCO)c4)oc4cc(OCCO)cc(O)c4c3=O)[C@H](O)[C@@H](O)[C@@H]2O)[C@H](O)[C@H](O)[C@H]1O [Troxerutin]	> 50	–

Structure (SMILES)	CC50 at 24 h (AC50 (uM) modified / 1000) [µM]	other results
OCCOc1cccc(OCCO)c1 [2,2'-[Benzene-1,3-diylbis(oxy)]diethanol]	> 90	–
O=C1c2c(O)ccc(Nc3ccc(CCO)cc3)c2C(=O)c2c([N+](=O)[O-])ccc(O)c21 [C.I. Disperse Blue 27]	63.1	–
CC(=O)c1ccc(Cl)c(Cl)c1Cl [2',3',4'-Trichloroacetophenone]	> 90	–
C[n+]1cc2c3c(ccc2c2ccc4cc5c(cc4c21)OCO5)OCO3 [Sanguinarine]	2.9	–
C=CCCC#N [4-Pentenenitrile]	> 90	–
Cc1c(N)cccc1[N+](=O)[O-] [2-Methyl-3-nitroaniline]	> 90	–
N#CCNCC#N [Iminodiacetonitrile]	–	CC50 at 24 h (AC50 (uM) modified / 1000, Tox21_110001=Tox21_301075, viability, 1 nM T3 present, 24 h): > 90 µM
OCC#CCO [2-Butyne-1,4-diol]	> 90	–
O=C(O)c1cc(=O)c2ccccc2o1 [Chromocarb]	> 50	–
Cc1ccc([N+](=O)[O-])cc1S(=O)(=O)O [2-Methyl-5-nitrobenzenesulfonic acid]	> 90	–
C=CCN1C[C@H](C)N([C@H](c2ccc(C(=O)N(CC)CC)cc2)c2cccc(OC)c2)C[C@H]1C [SNC 80]	28.8	–
Nc1ccc(S(=O)(=O)Nc2ccnn2-c2ccccc2)cc1 [Sulfaphenazole]	> 20	–
Cc1ccc(Nc2ccc(O)c3c2C(=O)c2ccccc2C3=O)cc1 [D&C Violet 2]	> 90	–
CN1C(=O)c2ccccc2C1=O [N-Methylphthalimide]	> 90	–
CC1CCCC1 [Methylcyclopentane]	> 90	–
CCCC(C)C(O)CC (centres unmarked) [4-Methyl-3-heptanol]	> 90	–
CCN1CCC[C@H]1CNC(=O)c1cc(S(N)(=O)=O)ccc1OC [Levosulpiride]	> 50	–
C1CCC2CCCCC2C1 (centres unmarked) [Decalin]	> 90	–
CC(C)c1ncc([N+](=O)[O-])n1C [Ipronidazole]	> 50	–
COP(=S)(OC)Oc1ccc(SC)c(C)c1 [Fenthion]	> 90	–
